US11046962B2, “Lux expression in cells and methods of use” (490 BioTech, Inc., priority 2019, dated 2021)

Key:
[1] = tested on: iPSC-derived cardiomyocytes (CMs); assay: Doxorubicin exposure of cardiomyocytes differentiated from tet-luxCDABEF/tTA iPSCs, autobioluminescence imaging; type: cell-based; conditions: Homo sapiens, Cardiomyocyte, 18 hours exposure prior to imaging, read-out: estimated EC50
Method: FIG. 16. Human induced pluripotent stem cells (iPSCs) bearing genomically integrated polycistronic lux operon (luxCDABEF) under control of the tetracycline responsive promoter (tet-luxCDABEF) and a separately integrated CBA-driven transactivator (tTA) were differentiated into cardiomyocytes (CMs). After maturation for approximately 1.5 weeks, the CMs were subjected to doxorubicin exposure. CMs were exposed to doxorubicin at the indicated range of concentrations for 18 hours prior to imaging.

iPSC-luxAB/CDEF cells = assay: Compound toxicity tracking in iPSC-luxAB/CDEF line by autonomous luminescent output and MTT; type: cell-based, Human; conditions: range of concentrations, 24 hours
Method: First, iPSC-luxAB/CDEF cells were seeded in a volume of medium in two separate multi-well plates. Identical platings of untransfected cells were made along with platings of medium to serve as positive and negative controls. For the first plate, the cells were subjected to increasing concentrations of the cytotoxic compound doxorubin. For the second plate, the cells were subjected to increasing concentrations of the cytotoxic compound rotenone. The cells were then incubated under standard growth conditions for twenty four (24) hours. After this time period, the plates was imaged for luminescent output. Bioluminescent readings were obtained using a Synergyll plate reader (BioTek).
Following this reading, the plates were subjected to viability analysis using the MTT assay according to the manufacturer's instructions. MTT assay values were obtained as absorbance values at 570 nm using a Synergyll plate reader (BioTek) and reported as percentage of absorbance relative to untreated control cells. For all measurements, the background absorbance values derived from the medium only controls were subtracted to provide background corrected averages. Absorbance values from each treatment level were averaged, and the average values for each of the plates were used to determine standard errors of the mean for each assay.

[2] = tested on: CM-luxAB/CDEF cardiomyocytes; assay: Continuous cardiotoxicity monitoring with CM-luxAB/CDEF cardiomyocytes over 30 hours
[3] = tested on: CM-luxAB/CDEF cardiomyocytes; assay: Cardiotoxicity reporting by CM-luxAB/CDEF line, autobioluminescent output after 24 hours; type: cell-based; conditions: Homo sapiens, Cardiomyocyte, 24 hours of treatment
Method: The autobioluminescent CM-luxAB/CDEF line was treated with a range of doxorubicin (uM) concentrations, and autobioluminescent output was measured after 24 hours of treatment.
The CM-luxAB/CDEF line was treated with a range of doxorubicin concentrations, and the autobioluminescent output was measured after twenty-four (24) hours of treatment. The percent change in average radiance (p/s/cm^2/sr) relative to control was plotted against the corresponding doxorubicin (uM) treatment.

## COc1cccc2c1C(=O)c1c(O)c3c(c(O)c1C2=O)C[C@@](O)(C(=O)CO)C[C@@H]3O[C@H]1C[C@H](N)[C@H](O)[C@H](C)O1 [doxorubicin]
[1]
  EC50: 410 to 740 nM
iPSC-luxAB/CDEF cells
  change of autonomous luminescent signal output indicative of cellular viability: dose dependent changes
[2]; kinetic IC50 values over time course, measured every 10 minutes
  time of exposure at which the IC50 stabilizes: ~30 h
[2]; real time monitoring, 25 hours after addition
  autobioluminescent output with increasing concentrations: decreasing autobioluminescent output
[3]
  IC50: 290 nM
